≈ marks a conversion by molar mass, not a printed value.
What was measured:
MRSA ATCC BAA-42 [1] = assay: MIC/MBC of CSA-4110, Gram positive bacteria (Table 2); format: cell-based; conditions: Staphylococcus aureus
Method: (§1) All compounds were screened against these pathogens to determine their minimum inhibitory concentration (MIC), minimum bactericidal concentration (MBC), and minimum fungicidal concentration (MFC) using a broth microdilution method. […] Of these three, only CSA-4110 was similarly active against PA01and CA, inhibiting growth at 8 μg/mL.
(§2) CSA-4110 was evaluated further against a broader range of bacterial and fungal strains. Acinetobacter baumannii and several isolates of Staphylococcus aureus, Klebsiella pneumoniae, and Candida auris were selected, further broadening the coverage of high and critical priority pathogens. Streptococcus uberis, Staphylococcus pseudintermedius, Proteus mirabilis, and Escherichia coli were also screened to obtain a more complete efficacy profile. […] For comparison, previous work established the MICs of CSA-131 against strains of Staphylococcus aureus, Pseudomonas aeruginosa, and Candida albicans at 0.5-2 μg/mL

S. uberis ATCC 27958 = assay: as above; format: cell-based; conditions: Streptococcus uberis, ATCC27958
Method: as §1, §2

S. aureus ATCC 27734 = assay: as above; format: cell-based; conditions: Staphylococcus aureus, ATCC27734
Method: as §1, §2

[2] = test system: S. psuedintermedius ATCC 49444; assay: as above; format: cell-based; conditions: Staphylococcus pseudintermedius, ATCC49444
Method: as §1, §2

S. aureus ATCC 25923 = assay: as above; format: cell-based; conditions: Staphylococcus aureus, ATCC25923
Method: as §1, §2

S. aureus ATCC 6538 = assay: as above; format: cell-based; conditions: Staphylococcus aureus, ATCC6538
Method: as §1, §2

[3] = Critical micelle concentration, orange OT dye solubilization; format: physicochemical; conditions: aqueous solution with orange OT dye, water; FIG. 4; read-out: critical micelle concentration (CMC), solubilization of orange OT
Method: Previous studies have shown membrane disruption and permeabilization to be the mechanism of action of other CSA compounds. The critical micelle concentration (CMC) of CSA-4110 was measured to determine if aggregation was necessary for antimicrobial activity (see FIG. 4). This assay involves using a hydrophobic dye (orange OT) that is insoluble in water to measure what concentration of CSA-4110 is required to solubilize orange OT. Entry of orange OT into solution is due to micelle formation by CSA-4110 and can be quantified with a spectrophotometer.

[4] = test system: Pseudomonas aeruginosa (Pa); assay: Example 1 MIC/MBC (FIG. 1, FIG. 2), Pa; format: cell-based
Method: The antimicrobial activities of CSA-4108, CSA-4110, CSA-4112, and CSA-4114 were determined relative to methicillin-resistant Staphylococcus aureus (MRSA), Pseudomonas aeruginosa (Pa), and Candida albicans 90028. The minimum inhibitory concentration (MIC) for CSA-4108, CSA-4110, CSA-4112, and CSA-4114 relative to the foregoing microbes is graphically reported in FIG. 1. The minimum bactericidal concentration (MBC) and minimum fungicidal concentration […] for CSA-4108, CSA-4110, CSA-4112, and CSA-4114 relative to the foregoing microbes are graphically reported in FIG. 2.

lipase = assay: Stability (hydrolysis) in the presence of lipase, HPLC; format: in vitro ADME
Method: The stability, more particularly the rate of hydrolysis in water, of CSA-4110 was tested at various pH values or when exposed to lipase.
To measure the stability of CSA-4110 under various conditions (pH and presence of lipase), monitored degradation over time by HPLC. To enable UV/visible detection, CSA-4110 required derivatization with a chromophore. A precolumn derivatization method was adapted using Fmoc-Cl. This method also required CSA-131 as an internal standard to eliminate errors due to volumetric variations.
With a reliable quantitative analysis method in hand, the optimal storage conditions were determined for CSA-4110 in solution and how quickly CSA-4110 degrades when exposed to mammalian lipases and varied pH. Reference is again made to FIGS. 3A-3D.

[5] = test system: methicillin-resistant Staphylococcus aureus (MRSA); assay: MIC and MBC, broth microdilution, MRSA (Table 1); format: cell-based; conditions: Staphylococcus aureus
Description: To investigate the antimicrobial impact of structural variance in the novel bioresorbable CSA compounds disclosed herein,Pseudomonas aeruginosa 01 (PA01), methicillin-resistant Staphylococcus aureus (MRSA), and Candida albicans (CA) were selected, representing Gram-negative bacterial, Gram-positive bacterial, and fungal pathogens of high or critical priority on the world health organization's priority lists for bacteria and fungi. Earlier applications of CSA compounds have focused on preventing medical device infections, and all three strains are commonly found in colonized implants, making efficacy against these pathogens an important indicator of future applicability.
as §1

P. mirabilis ATCC 29906 = assay: MIC/MBC of CSA-4110, Gram negative bacteria (Table 3); format: cell-based; conditions: Proteus mirabilis, ATCC29906
Method: as §1, §2
PM is a Gram-negative organism which is occasionally found in urinary tract infections in individuals with functional or anatomical anomalies. It is often noted for its ability to modulate its susceptibility to cationic biocides primarily through modifications to its efflux system and the structure of lipopolysaccharide, a negatively charged endotoxin located in the outer membrane. This can provide insight into the mechanism-of-action for CSA-4110. […]

MRSA ATCC BAA-42 [6] = assay: Membrane depolarization, DiSC2(5) fluorescence; format: cell-based, Staphylococcus aureus; conditions: 8 μg/mL, added at 140 seconds, FIG. 5
Method: Reference is made to FIGS. 4 and 5. […] CSA-131 or CSA-4110 was added at 140 second to achieve 8 μg/mL after addition.
Antimicrobial peptides (AMPs) and CSA compounds are known to permeabilize bacterial membranes. For bacterial survival, the cytoplasmic membrane must be polarized. Depolarization of this membrane prevents ATP synthesis and leads to cell death. The dye 3,3′-diethylthiadicarbocyanine iodide (DiSC2(5)) can be used to measure cell membrane polarization. Fluorescence of this dye is decreased when it inserts into polarized membranes, and membrane depolarization results in substantial increases in fluorescence (see FIG. 5).
MRSA was used to explore the impact of CSA-4110 on membrane depolarization and compared results to those with ceragenin CSA-131. […] Fluorescence was monitored over time after addition of CSA-4110 or CSA-131. which incorporated into cellular membranes.

CCCCCCCCCC(=O)OCC(O)COC(=O)CC[C@@H](C)[C@H]1CC[C@H]2[C@@H]3[C@H](OC(=O)CCN)C[C@@H]4C[C@H](OC(=O)CCN)CC[C@]4(C)[C@H]3C[C@H](OC(=O)CCN)[C@]12C (stereo partly shown) [CSA-4110]
MBC (MRSA ATCC BAA-42 [1]): 2 µg/mL | MIC (MRSA ATCC BAA-42 [1]): 2 µg/mL | MBC (S. uberis ATCC 27958): 4 µg/mL | MIC (S. uberis ATCC 27958): 2 µg/mL | MBC (S. aureus ATCC 27734): 4 µg/mL | MIC (S. aureus ATCC 27734): 4 µg/mL | MBC [2]: 4 µg/mL | MIC [2]: 4 µg/mL | MBC (S. aureus ATCC 25923): 8 µg/mL | MIC (S. aureus ATCC 25923): 4 µg/mL | MBC (S. aureus ATCC 6538): 8 µg/mL | MIC (S. aureus ATCC 6538): 4 µg/mL | critical micelle concentration [3]: ~1000 µg/mL | MBC (FIG. 2), ranking in words ([4]; PA): lowest MBC and MFC | MIC (FIG. 1), ranking in words ([4]; Pa): lowest MIC | hydrolysis in aqueous solution containing lipase (lipase; FIG. 3D): hydrolyzed most rapidly | half-life (lipase; mammalian (lipase; species not named), lipase in aqueous solution, dissolved with a lipase at room temperature at pH=6.9): 1 h | MBC ([5]; MBC, value in parentheses, kills at least 99.9%): 8 µg/mL (≈ 9.41 µM) | MIC ([5]; first value of cell): ≤ 8 µg/mL | MBC (P. mirabilis ATCC 29906): 64 µg/mL | MIC (P. mirabilis ATCC 29906): 16 µg/mL | fluorescence of DiSC2(5) after addition (membrane depolarization) (MRSA ATCC BAA-42 [6]): rapid increase of fluorescence
